Data set [1] has as its system rats (Sprague Dawley), rabbits (New-Zealand albino), monkeys (Cynomolgus). Format: in vivo. Particulars: intravenous, injection speeds up to 4 ml/min.
Method: Male rats (Sprague Dawley): 6 to 12 animals for each dose (2×5, 2×10 and 2×20 mg/kg. The product was injected intravenously into the caudal vein.
Rabbits (New-Zealand albino rabbits): 5 animals received the dose of 5 mg/kg. The product was injected three times intravenously, once intra-arterially and once perivenously.
Monkeys (Cynomolgus, of a weight varying from 2.5 to 3.2 kg): 6 to 10 animals of each sex for each dose (1, 2, 5 and 6 mg/kg). The product was injected intravenously into the saphenous vein or into the cephalic vein, once each day during 14 days.
Monkeys (Cyonomolgus of a weight varying from 2.25 to 4.7 kg): 3 to 6 animals for each dose (2 and 5 mg/kg). The product was injected intravenously into the saphenous vein or into the cephalic vein.
The assessment of the animals was made on the basis of clinical signs, biological analyses carried out on the blood and on the urine, cardiovascular examinations and of histopathological examinations.
The conditions of data set [2]: in vivo; cited from earlier work.
Data set [3] concerns mice (OF), rats (Sprague Dawley), monkeys (Cynomolgus). Type of data set: in vivo. The note with it: intravenous, provided the injections were made slowly.
Method: 1—Mice (OF, of a weight varying from 25 to 35 grams): 10 animals of each sex for each dose (2×25, 2×50, 2×75 and 1×100 mg/kg).The product was injected into the caudal vein.
2—Rats (Sprague Dawley, of a weight varying from 150 to 230 grams): 4 to 10 animals of each sex for each dose (from 4 to 200 mg/kg). The product was injected into the caudal vein.
3—Monkeys (Cynomolgus of a weight varying from 1.8 kg to 3.5 kg): 1 animal of each sex for each dose (8, 16 and 24 mg/kg). The product was injected into the saphenous vein or into the cephalic vein once a day during 7 days.
The assessment of the animals was made on the basis of clinical signs, biological analyses carried out on the blood and the urine and of histopathological examinations.

Turning to “Pd-bacteriopheophorbide a [Pd-Bpheide a]”, the “tolerance in toxicity studies” value in data set [1] and in data set [3] was “well tolerated” each time. Besides, in data set [2], the “cutaneous and ocular photosensitisation” value is “no or little cutaneous photosensitisation”.
